Series [1] in a line: Circular dichroism (CD) spectroscopy. The series is classed as physicochemical. As to conditions: 0.1 mg/mL in deionized water, room temperature. How it is done: All peptides were dissolved in the deionized water at a final concentration of 0.1 mg/mL. The CD spectra were measured by using a 1 nm bandwidth with a 1 nm step resolution from 190 to 260 nm at room temperature (Jasco spectropolarimeter, Japan). Final spectra were obtained from the average of three parallel scans after subtracting a spectrum of deionized water recorded under the same conditions. Each sample was scanned thrice and the averaged spectrum was smoothed. The helicity were calculated by CDNN 2.1 [59], [60].
Background: Circular dichroism is widely used to follow secondary structure.

The target in series [2] is T1, endogenous CREPT protein in AsPc-1 cells (Homo sapiens, UniProt Q9NQG5).
T1 construct: endogenous protein level of CREPT in Panc-1, AsPc-1 and MIA-PaCa-2 cells; endogenous in cells; host or cells: Panc-1, AsPc-1, MIA PaCa-2
T1 sequence (Q9NQG5 1-326): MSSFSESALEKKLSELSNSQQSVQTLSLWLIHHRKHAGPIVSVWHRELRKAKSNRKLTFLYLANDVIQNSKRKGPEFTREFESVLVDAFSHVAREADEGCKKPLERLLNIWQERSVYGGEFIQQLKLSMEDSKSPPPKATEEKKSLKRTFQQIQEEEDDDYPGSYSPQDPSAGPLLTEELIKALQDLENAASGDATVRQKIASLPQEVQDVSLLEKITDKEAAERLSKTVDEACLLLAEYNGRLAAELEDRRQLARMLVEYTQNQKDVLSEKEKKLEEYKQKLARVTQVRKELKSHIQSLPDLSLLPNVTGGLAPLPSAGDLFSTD
The series is described as follows: Western blot of endogenous CREPT (degradation). The series is classed as cell-based. As to conditions: 24 h incubation. How it is done: For exogenous immunoprecipitation assays, HEK293T cells were plated in 60 mm dishes and then transfected with the indicated plasmids. After 24 h, cells were harvested using RIPA buffer (50 mM Tris-HCl pH 8.0, 2 mM EDTA pH 8.0, 150 mM NaCl, 1% NP-40, 0.5% sodium deoxycholate, 0.1% SDS) with mixed protease inhibitors. Cell lysates were incubated with 2 μg of the indicated antibodies and 30 μL of protein A/G-Sepharose beads at 4 °C overnight. Beads were eluted five times with lysis buffer (50 mM Tris-HCl pH 7.6, 1 mM EDTA pH 8.0, 165 mM NaCl, 0.5% NP-40), and thereafter, a western blot assay was performed to analyze the association by using the indicated antibodies. Western blot was performed as previously reported. Anti-β-actin and anti-Flag antibodies were purchased from Sigma. Anti-Myc antibody was purchased from Santa Cruz Biotechnology. Antibody against CREPT was produced in the laboratory.
To address whether PRTC could induce CREPT degradation, we examined the endogenous protein level of CREPT in Panc-1, AsPc-1 and MIA-PaCa-2 cells in the presence of different dosages of PRTC. […] Consistently, treatment with PRTC led to decreases in CREPT protein at different times (Figure 5B, S3A). […] To further visualize the degradation process, we stained the endogenous CREPT protein with an antibody against CREPT in the cells treated with FITC-labeled PRTC.
Figure S3. PRTC induces CREPT degradation. […]
A general note: Immunoblotting shows a protein as a band on a membrane.

Series [3] has as its system Panc-1 cells. In words: Cell viability assay (CCK-8). Format: cell-based. As to conditions: 10 μM, CCK-8, OD450, three individual experiments. The procedure: Cells were seeded into 96-well plates (1000 cells per well) and cultured for the indicated times. Cell viability was evaluated using a CCK-8 kit (Solarbio, Beijing, China). The value of OD450 was calculated by spectrophotometer and presented as the mean ± standard deviation (SD) from three individual experiments.

The subject of another series is HPDE6-C7 cells. In words: Cell proliferation assay. The series is classed as cell-based. The note with it: little CREPT expression. How it is done:
Cells were seeded into 96-well plates (1000 cells per well) and cultured for the indicated times. Cell viability was evaluated using a CCK-8 kit (Solarbio, Beijing, China). The value of OD450 was calculated by spectrophotometer and presented as the mean ± standard deviation (SD) from three individual experiments. […]
(H) Cell proliferation assay of
HPDE6-C7 cells. […] HPDE6-C7
(§1) is anormal pancreatic epithelial cell line.
(§2) (1 picture or pasted object on this page, not shown here)

The subject of series [4] is Panc-1 cells. The series is described as follows: Colony formation. Format: cell-based. As to conditions: 500 cells per well, 10 days, than the control cells. The procedure:
Cells were seeded into 6-well plates (500 cells per well) and cultured for 10 days, then washed with PBS and stained with 0.1% crystal violet. The number of colonies was counted by ImageJ and presented as the mean ± standard deviation (SD) from three individual experiments.

For a further series, the system named is AsPc-1 cells. In words: Colony formation. Format: cell-based. As to conditions: 10 μM, 500 cells per well, 8 days, than the control cells. The procedure: (§3) Cells were seeded into 6-well plates (500 cells per well) and cultured for 10 days, then washed with PBS and stained with 0.1% crystal violet. The number of colonies was counted by ImageJ and presented as the mean ± standard deviation (SD) from three individual experiments. […]
(§4) tumorigenesis in AsPc-1 and MIA PaCa-2 cells. (A-B) Colony formation of AsPc-1 respectively treated with deionized H2O (Ctrl), 10 μM PRTC, 10 μM PRTC-m and 10 μM PRTC-v. Cells were seeded into 6-well plates (500 cells per well) and cultured for 8 days.(C) CellproliferationassayofAsPc-1cellstreatedwith deionizedwater(Ctrl), 10μMPRTC,10μM PRTC-m and 10 μM PRTC-v.(D-E) Colony formation of MIA PaCa-2 respectively treated with deionized H2O (Ctrl), 10 μM PRTC, PRTC-m and PRTC-v.(F) Cell proliferation assay of MIA PaCa-2cells treatedwith deionizedH 2O(Ctrl),10μMPRTC, PRTC-mandPRTC-v. (G)Tumor volumesofxenografttumors,whichweremeasuredbycalipers. V=( a× b2)/2(V isvolume, a is the length of the tumor,b is the width of the tumor). (H) Cell proliferation assay of […]
as §1, §2

In the next series the test system is MIA PaCa-2 cells. In words: Colony formation. As to conditions: 10 μM, than the control cells. Format: cell-based. The procedure:
as §3, §4, §1, §2

Series [5] in a line: Body weight and toxicity in mice bearing xenograft tumors. Format: in vivo, Balb/c nude mice. The note with it: 10 mg/kg intraperitoneal, and HPDE6-C7 cells. The procedure: For the xenograft model, 5×10^6 wild-type Panc-1 cells or CREPT knockout Panc-1 cells were subcutaneously injected into 4-week-old female Balb/c nude mice, which were purchased from Beijing Vital River Laboratory Animal Technology Co., Ltd. Each experimental group consisted of five mice. Mice bearing tumors were randomly divided into two groups and administered via intraperitoneal injection control solvent (0.9% saline) or PRTC (dissolved in 0.9% saline, 10 mg/kg) every 2 days for 4 weeks. The body weight of mice were measured every week after treated with 0.9% saline or PRTC. Tumor volume was measured by using the formula V = (a × b^2)/2 (V is volume, a is the length of the tumor, b is the width of the tumor).

SMILES strings stand for the structures. Entries after “also recorded” stand apart in the source; their conditions may differ. Non-standard residues stand in square brackets, D forms with d. Residues, ends and D or L forms follow the SMILES beside them. Hyp = O=C(O)[C@@H]1C[C@@H](O)CN1; Ahx = NCCCCCC(=O)O

Take `CC[C@H](C)[C@H](N)C(=O)N[C@@H](Cc1ccc(O)cc1)C(=O)N1C[C@H](O)C[C@H]1C(=O)N[C@@H](C)C(=O)N[C@@H](CC(C)C)C(=O)NCCCCCC(=O)N[C@@H](CCCCN)C(=O)N[C@@H](CC(=O)O)C(=O)N[C@H](C(=O)N[C@@H](CC(C)C)C(=O)N[C@@H](CO)C(=O)N[C@@H](CCC(=O)O)C(=O)N[C@@H](CCCCN)C(=O)N[C@@H](CCC(=O)O)C(=O)N[C@@H](CCCCN)C(=O)N[C@@H](CCCCN)C(=O)N[C@@H](CC(C)C)C(=O)N[C@@H](CCC(=O)O)C(=O)N[C@@H](CCC(=O)O)C(=O)N[C@@H](Cc1ccc(O)cc1)C(=O)N[C@@H](CCCCN)C(=O)N[C@@H](CCC(N)=O)C(=O)N[C@@H](CCCCN)C(=O)N[C@@H](CC(C)C)C(=O)N[C@@H](C)C(=O)N[C@@H](CCCNC(=N)N)C(=O)N[C@H](C(=O)N[C@@H](CCCNC(=N)N)C(=O)N[C@@H](CCCNC(=N)N)C(=O)N[C@@H](CCCNC(=N)N)C(=O)N[C@@H](CCCNC(=N)N)C(=O)N[C@@H](CCCCN)C(=O)O)C(C)C)C(C)C` [PRTC] (H-IY[Hyp]AL[Ahx]KDVLSEKEKKLEEYKQKLARVRRRRK-OH; N-terminus and C-terminus assumed): the “secondary structure by CD spectrum” value in series [1] is recorded as “α-helix structure”. In addition, the Helicity in series [1] (190 to 260 nm, average of three scans, calculated by CDNN 2.1) is on record as 50.1%. The “CREPT protein level upon different dosages” value in series [2] was “dramatically decreased”. Moreover, in the series with Panc-1 cells [3], the cell proliferation entry is recorded as “dramatically inhibited”. For the same compound, in the series on HPDE6-C7 cells, the “cell proliferation of a normal pancreatic epithelial cell line” value is listed as “failed to influence; also recorded: failed to inhibit”. Also, the colony formation result with Panc-1 cells [4], in the series on AsPc-1 cells and with MIA PaCa-2 cells was “fewer colonies” throughout. Moreover, in series [5], the toxicity result is listed as “relatively low; also recorded: no toxicity”.

The record behind these values is paper PMC7069095, “A cell-permeable peptide-based PROTAC against the oncoprotein CREPT proficiently inhibits pancreatic cancer” (Theranostics, 2020).
